Reference: patent US10369159B2, “Estrogen receptor β partial agonist having estrogen receptor α inhibitory effect, and gynecological disease therapeutic agent using same” (NOBELPHARMA CO., LTD., priority 2015, dated 2019)

Legend:
Assay type in all cases: in vivo, rat
PR = test: Gene expression analysis of endometrial implants (TaqMan), PR; conditions: for Expression level PR: endometrial implants, corrected by GAPDH, n 6, E2 control 101.0 ± 40.3
Description: (§1) Total RNA was extracted […] the rat-derived endometrial graft (27 specimens), then quality of the RNA was inspected with a spectrophotometer and bio-analyzer, and then reverse transcription reaction of the RNA was performed, followed by gene expression analysis was performed according to TaqMan method.
(§2) RNA was extracted from the rat uterine horn strips and grafted uterine strip using the RNeasy Fibrous Tissue Mini Kit.
(§3) Concentration of the extracted RNA was measured with a NanaoDrop. Also RIN measurements using a bioanalyzer (6000 nano kits) was carried out. A 6000 pico-kit was used for bioanalyzing of the two samples with low yield (Sample ID: 202, 507).
(§4) cDNA obtained by reverse transcription reaction from 1000 ng/uL of commercially available Rat Tissue Universal Reference Total RNA (Catalog Number PR-UR-100, ZYAGEN Inc.) using SuperScript VILO Master Mix (hereinafter “Standard”) was used as a standard substance.
(§5) Based on the concentration measured with a spectrophotometer, reverse transcription reaction of the specimen with Super Script VILO Master Mix was performed to give 50 ng/uL of cDNA (the following example). As for the samples with low yield, that is Sample ID: 202, 502, 507, the reverse transcription reaction was performed to give 25 ng/uL, 25 ng/uL, and 12.5 ng/uL of cDNA, respectively.
(§6) TaqMan reaction by using Step One Plus Real-Time PCR System was performed with standard 250, 62.5, 15.625, 3.9, 0.98 ng/well or sample 5.0 ng/well. A cycle of reaction, two minutes at 50° C. and 10 minutes at 95° C., followed by 15 seconds at 95° C. and one minute at 60° C., was repeated 40 cycles, then the fluorescence value FAM was measured in real time after the reaction at 60° C. In addition to the target eight genes, GAPDH gene as an internal control gene was measured. All the standards and samples were measured in triplicate.
(§7) From each of the two calibration curves (target gene, GAPDH gene) obtained from the standard, gene expressions level of the target gene and GAPDH gene of the sample was calculated, respectively. Then, the target gene expression level was corrected by the GAPDH gene expression level, the internal control gene. And then, an average gene expression level of the samples in each group was calculated, followed by the average gene expression level of the two groups was used as a standard to compare with each of the other groups.

MCP-1 = test: Gene expression analysis of endometrial implants (TaqMan), MCP-1; conditions: corrected by GAPDH, n 6, E2 control 29.47 ± 20.81
Description: as §1, §2, §3, §4
(§8) Based on the concentration measured with a spectrophotometer, reverse transcription reaction of the specimen with Super Script VILO Master Mix was performed to give 50 ng/uL of cDNA (the following example). […]
as §6
as §7, with “Then, the target gene expression level was corrected by the GAPDH gene expression level, the internal control gene.” left out

PEDF = test: Gene expression analysis of endometrial implants (TaqMan), PEDF; conditions: for Expression level PEDF: endometrial implants, corrected by GAPDH, n 6, E2 control 4.51 ± 1.39
Description: as §1, §2, §3, §4, §8, §6
as §7, with “Then, the target gene expression level was corrected by the GAPDH gene expression level, the internal control gene.” left out

VEGF = test: Gene expression analysis of endometrial implants (TaqMan), VEGF; conditions: for Expression level VEGF: endometrial implants, corrected by GAPDH, n 6, E2 control 1.62 ± 0.43
Description: as §1, §2, §3, §4, §5, §6, §7

IL-6 = test: Gene expression analysis of endometrial implants (TaqMan), IL-6; conditions: for Expression level IL-6: endometrial implants, corrected by GAPDH, n 6, E2 control 14.24 ± 8.74
Description: as §1, §2, §3, §4, §8, §6
as §7, with “Then, the target gene expression level was corrected by the GAPDH gene expression level, the internal control gene.” left out

Erb = test: Gene expression analysis of endometrial implants (TaqMan), Erb; conditions: for Expression level Erb: endometrial implants, corrected by GAPDH, n 6, E2 control 2.37 ± 1.07
Description: as §1, §2, §3, §4, §5, §6, §7

Era = test: Gene expression analysis of endometrial implants (TaqMan), Era; conditions: for Expression level Era: endometrial implants, corrected by GAPDH, n 6, E2 control 44.2 ± 18.9
Description: as §1, §2, §3, §4, §5, §6, §7

[1] = in comparison with the E2 control group

## CCN(CC)Cc1ccc(OCC[C@H]2CC[C@H]3[C@@H]4[C@H](C)Cc5cc(O)ccc5[C@H]4CC[C@]23C)c(OC)c1 [SR16234, (7α)-21-[4-[(diethylamino)methyl]-2-methoxyphenoxy]-7-methyl-19-norpregna-1,3,5(10)-triene-3-ol]
PR; 0.1 mg/kg
  Expression level PR: 94.6 ± 37.7 ng
PR; 0.3 mg/kg
  Expression level PR: 176.2 ± 81.1 ng
PR; 1 mg/kg
  Expression level PR: 127.8 ± 89.1 ng
PR; [1]
  Effect on gene expression of PR (in words): slight increase trend
MCP-1; 0.1 mg/kg
  Expression level MCP-1: 41.95 ± 21.68 ng
MCP-1; 0.3 mg/kg
  Expression level MCP-1: 28.30 ± 10.93 ng
MCP-1; 1 mg/kg
  Expression level MCP-1: 26.70 ± 18.30 ng
PEDF; 0.1 mg/kg
  Expression level PEDF: 6.44 ± 1.56 ng
PEDF; 1 mg/kg
  Expression level PEDF: 5.93 ± 3.01 ng
PEDF; in comparison with the E2 control group, FIG. 2
  Effect on the gene expression of PEDF (in words): increase trend
VEGF; 0.1 mg/kg
  Expression level VEGF: 1.44 ± 0.43 ng
VEGF; 0.3 mg/kg
  Expression level VEGF: 1.65 ± 0.40 ng
VEGF; 1 mg/kg
  Expression level VEGF: 1.33 ± 0.57 ng
VEGF; [1]
  Effect on the gene expression of VEGF (in words): No effect
IL-6; 0.1 mg/kg
  Expression level IL-6: 9.77 ± 9.78 ng
IL-6; 1 mg/kg
  Expression level IL-6: 6.74 ± 4.96 ng
IL-6; in comparison with the E2 control group, FIG. 3
  Effect on the gene expression of IL-6 (in words): dose-dependently inhibited
Erb; 0.1 mg/kg
  Expression level Erb: 4.05 ± 1.88 ng
Erb; 0.3 mg/kg
  Expression level Erb: 3.05 ± 1.02 ng
Erb; 1 mg/kg
  Expression level Erb: 2.08 ± 1.51 ng
Erb; [1]
  Effect on the estrogen receptor gene expression of Erb (in words): not observed
Era; 0.1 mg/kg
  Expression level Era: 39.3 ± 14.3 ng
Era; 0.3 mg/kg
  Expression level Era: 47.6 ± 14.9 ng
Era; 1 mg/kg
  Expression level Era: 33.2 ± 20.7 ng
Era; [1]
  Effect on the estrogen receptor gene expression of Era (in words): not observed
